Measurements taken from paper PMC12299904, “Purine–Hydrazone Scaffolds as Potential Dual EGFR/HER2 Inhibitors” (Pharmaceuticals, 2025).
Several values for one entry are separate records, joined by “and”; a condition that tells them apart may be missing. Identical values can stand only once. Like-named read-outs stand apart in the source and are kept apart here.

How the values were obtained:
A549 cells = assay: In vitro cytotoxicity assay (MTT), A549; details: for IC50: mean ± SD, three experiments
Method: (§1) The selected cell lines include A549, a lung cancer cell line that is characterized by its high expression of EGFR; SKOV-3, an ovarian cancer cell line, selected for its overexpression of both EGFR and HER2; and the breast cancer cell line (SKBR-3), characterized by HER2 overexpression.
(§2) Cells were passaged regularly at around 80% confluency using […] and maintained in 75 cm^2 flasks at 37 °C in a humidified atmosphere containing 5% CO2.
(§3) Approximately 10 × 10^3 cells were seeded per well of the 96-well plates using drug-free media and incubated for 24 h. […] After 48 h of drug exposure, the supernatant was aspirated, and the cells were washed with 100 μL of PBS. The MTT assay was performed by creating a stock solution of MTT at a concentration of 5 mg/mL in PBS. From this stock, a solution of MTT in the cell culture media was prepared to achieve a final concentration of 0.5 mg/mL. […] The MTT solution was thereafter removed, and the generated formazan crystals were dissolved by adding 100 μL of propanol/DMSO (50:50) per well. Absorbance was measured at 570 nm, and IC50 values for each compound were calculated by comparison against negative untreated controls.

[1] = In vitro cytotoxicity assay (MTT), normal cell line MRC-5; format: cell-based; details: MRC-5 normal embryonic lung cells, normal human embryonic lung cell line, mean ± SD
Method: as §2, §3

HER2 = biological target: T1, HER2 (Homo sapiens, UniProt P04626); assay: In vitro enzyme inhibition assay, HER2 Kinase Assay Kit (BPS Bioscience); format: biochemical; details: three independent experiments; read-out: Protein Kinase Inhibition IC50, HER2
T1 construct: purchased BPS Bioscience 40721
T1 sequence (P04626 23-1255): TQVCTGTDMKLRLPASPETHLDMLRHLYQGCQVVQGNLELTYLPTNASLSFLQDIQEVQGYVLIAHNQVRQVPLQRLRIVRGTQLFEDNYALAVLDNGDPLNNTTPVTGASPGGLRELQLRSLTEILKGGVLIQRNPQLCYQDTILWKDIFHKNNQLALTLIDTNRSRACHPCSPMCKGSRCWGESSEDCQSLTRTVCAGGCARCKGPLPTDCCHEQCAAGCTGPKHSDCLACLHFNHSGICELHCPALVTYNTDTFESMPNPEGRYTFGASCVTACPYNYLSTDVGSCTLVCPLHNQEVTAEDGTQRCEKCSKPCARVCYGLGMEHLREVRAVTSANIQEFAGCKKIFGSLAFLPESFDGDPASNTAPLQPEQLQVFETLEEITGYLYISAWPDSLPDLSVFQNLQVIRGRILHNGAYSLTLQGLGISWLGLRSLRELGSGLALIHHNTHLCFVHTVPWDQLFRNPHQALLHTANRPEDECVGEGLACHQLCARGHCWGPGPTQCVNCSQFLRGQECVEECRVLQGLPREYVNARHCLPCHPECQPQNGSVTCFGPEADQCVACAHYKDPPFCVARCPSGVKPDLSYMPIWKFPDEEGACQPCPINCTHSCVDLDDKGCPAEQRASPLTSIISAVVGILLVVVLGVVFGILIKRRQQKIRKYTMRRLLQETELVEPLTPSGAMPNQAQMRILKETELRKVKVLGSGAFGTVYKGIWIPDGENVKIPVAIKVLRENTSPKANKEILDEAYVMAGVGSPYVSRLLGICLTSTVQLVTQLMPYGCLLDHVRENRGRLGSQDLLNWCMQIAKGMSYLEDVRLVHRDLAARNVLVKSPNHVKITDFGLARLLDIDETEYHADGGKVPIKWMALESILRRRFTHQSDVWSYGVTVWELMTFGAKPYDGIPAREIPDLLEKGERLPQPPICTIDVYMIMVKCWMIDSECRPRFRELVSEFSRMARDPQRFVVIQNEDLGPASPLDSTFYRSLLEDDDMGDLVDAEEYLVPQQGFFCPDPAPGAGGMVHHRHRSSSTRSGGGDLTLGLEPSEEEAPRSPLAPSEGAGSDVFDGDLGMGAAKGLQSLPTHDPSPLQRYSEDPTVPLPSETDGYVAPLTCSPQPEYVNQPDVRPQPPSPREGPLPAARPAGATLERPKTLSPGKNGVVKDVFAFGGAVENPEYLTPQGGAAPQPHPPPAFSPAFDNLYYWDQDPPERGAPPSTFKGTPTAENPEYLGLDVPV

EGFR = biological target: T2, EGFR (Homo sapiens, UniProt P00533); assay: In vitro enzyme inhibition assay, EGFR Kinase Assay Kit (BPS Bioscience); format: biochemical; details: three independent experiments; read-out: Protein Kinase Inhibition IC50, EGFR
T2 construct: purchased BPS Bioscience 40321
T2 sequence (P00533 25-1210): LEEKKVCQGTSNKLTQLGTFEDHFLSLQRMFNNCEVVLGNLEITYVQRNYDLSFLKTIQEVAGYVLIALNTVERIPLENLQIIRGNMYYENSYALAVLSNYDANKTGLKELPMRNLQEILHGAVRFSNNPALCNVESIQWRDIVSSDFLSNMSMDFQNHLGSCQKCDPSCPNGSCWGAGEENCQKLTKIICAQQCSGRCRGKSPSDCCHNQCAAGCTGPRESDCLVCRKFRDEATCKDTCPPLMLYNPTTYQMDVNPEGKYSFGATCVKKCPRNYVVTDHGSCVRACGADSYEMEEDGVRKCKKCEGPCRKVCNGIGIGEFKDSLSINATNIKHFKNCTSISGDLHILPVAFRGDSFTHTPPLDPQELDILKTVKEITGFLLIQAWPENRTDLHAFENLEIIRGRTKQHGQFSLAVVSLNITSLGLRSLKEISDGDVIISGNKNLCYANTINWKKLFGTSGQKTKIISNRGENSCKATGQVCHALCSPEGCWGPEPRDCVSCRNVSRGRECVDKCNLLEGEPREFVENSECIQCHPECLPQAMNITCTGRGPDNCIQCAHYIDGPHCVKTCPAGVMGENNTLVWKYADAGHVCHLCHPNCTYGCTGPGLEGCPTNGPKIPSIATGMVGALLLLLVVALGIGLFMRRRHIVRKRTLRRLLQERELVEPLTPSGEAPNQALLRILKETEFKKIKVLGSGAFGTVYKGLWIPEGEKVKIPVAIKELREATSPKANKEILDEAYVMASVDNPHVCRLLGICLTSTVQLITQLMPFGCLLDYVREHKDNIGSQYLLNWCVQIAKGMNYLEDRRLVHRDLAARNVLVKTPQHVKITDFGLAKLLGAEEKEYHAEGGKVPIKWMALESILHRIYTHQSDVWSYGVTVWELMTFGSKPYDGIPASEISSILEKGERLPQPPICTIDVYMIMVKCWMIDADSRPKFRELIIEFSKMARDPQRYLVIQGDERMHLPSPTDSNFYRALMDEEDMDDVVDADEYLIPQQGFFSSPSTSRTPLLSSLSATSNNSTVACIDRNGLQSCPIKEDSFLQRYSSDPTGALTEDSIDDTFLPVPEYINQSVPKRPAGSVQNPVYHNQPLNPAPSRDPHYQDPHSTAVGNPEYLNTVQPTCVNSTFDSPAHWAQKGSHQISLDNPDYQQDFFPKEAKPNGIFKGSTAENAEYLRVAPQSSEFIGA

SKBR-3 cells = assay: In vitro cytotoxicity assay (MTT), SKBR-3; format: cell-based, human; details: for IC50: MTT, 48 h, mean ± SD, three experiments
Method: as §1, §2, §3

A2780 cells = assay: In vitro cytotoxicity assay (MTT), A2780; format: cell-based; details: Homo sapiens, 48 h, read-out: percentage of cell viability, A2780
[2] = tested on: A549, SKOV-3, A2780, SKBR-3 cells; assay: MTT assay, ranges stated over several cell lines; format: cell-based, human; details: IC50 MRC-5/IC50 cancer cell line; A549, SKOV-3, SKBR-3
Method: as §1, §2, §3

SKOV-3 cells = assay: In vitro cytotoxicity assay (MTT), SKOV-3; format: cell-based, human; details: for IC50: mean ± SD, three experiments
Method: as §1, §2, §3

For `O=C(N/N=C/c1cccc(C(F)(F)F)c1)c1ccc(Nc2ncnc3c2ncn3C2CCCC2)cc1` [16b, (E)-4-((9-cyclopentyl-9H-purin-6-yl)amino)-N′-(3-(trifluoromethyl)benzylidene) benzohydrazide], the IC50 (A549 cells; Homo sapiens, A549, 48 h, read-out: Cytotoxicity (IC50), A549, MTT, 48 h) was 2600 ± 350 nM, the viability at 10 µM (A549 cells; Homo sapiens, A549, 48 h, read-out: percentage of cell viability, A549) was 27% and the “Selectivity index (SI), A549” value (A549 cells; IC50 against MRC-5/IC50 against A549) was 14.07. It also gave an IC50 (A549 cells; read-out: Cytotoxicity (IC50), A549, MTT, 48 h) of 2600 ± 351 nM, an IC50 at 48 h [1] of 36650 ± 200 nM and an IC50 (HER2) of 45 ± 10 nM. The IC50 (EGFR) was 60 nM and 62 nM, the IC50 (SKBR-3 cells; Homo sapiens, SK-BR-3, 48 h) was 4300 ± 940 nM and the “Selectivity index (SI), SKBR-3” value (SKBR-3 cells; IC50 against MRC-5/IC50 against SKBR-3) was 8.51. The IC50 (SKBR-3 cells) was 4310 ± 948 nM, the viability at 10 µM (A2780 cells) was 16% and the “Selectivity index (SI) range across cancer cell lines” value [2] was 8.51–18.55. For the same compound, the IC50 (SKOV-3 cells; Homo sapiens, SK-OV-3, 48 h, MTT, 48 h) was 1970 ± 70 nM, the viability at 10 µM (SKOV-3 cells; Homo sapiens, SK-OV-3, 10 µM, 48 h, MTT, read-out: percentage of cell viability, SKOV-3) was 26% and the “Selectivity index (SI), SKOV-3” value (SKOV-3 cells; IC50 against MRC-5/IC50 against SKOV-3) was 18.55. The IC50 (SKOV-3 cells; MTT, 48 h) was 1980 ± 70 nM.
